PMC12424289, “Programmable Nanostructure Assembly of a Paclitaxel Derivative Enables Tunable Anticancer Therapy via Hydrogen Bond Engineering” (ACS Nano, 2025)
pIC50: −log10 of the molar value.

Experiments:
[1] = tested on: human colon HCT116-Luc cells; assay: CCK8 antiproliferation assay, HCT116-Luc; type: cell-based; conditions: 48 h treatment
Protocol: (§1) The mouse breast cancer cell line 4T1 and the human ovarian cancer cell line SKOV3 were cultured in RPMI 1640 medium supplemented with 10% fetal bovine serum, 100 units·mL^–1 penicillin, and 100 μg·mL^–1 streptomycin. The human lung cancer cell line A549 and the luciferase-expressing human colorectal carcinoma cell line HCT116-Luc were cultured in high-glucose DMEM medium supplemented with 10% fetal bovine serum, 100 units·mL^–1 penicillin, and 100 μg·mL^–1 streptomycin. All cell lines were maintained at 37 °C in a Steri-Cycle 371 incubator (Thermo Scientific, USA) with a humidified atmosphere of 5% CO2. Only cells between passages 5 and 15 were used for cell-based experiments.
(§2) The antiproliferative activity of PTP was evaluated using the Cell Counting Kit-8 (CCK8) assay. PTX solution served as a positive control. Cell suspensions were prepared at a density of 3 × 10^4 cells·mL^–1 and seeded in 96-well plates at a volume of 100 μL per well. The plates were incubated for 24 h to allow cell attachment and growth. Subsequently, the culture media were replaced with fresh media containing varying concentrations of PTX or PTP solutions (100 μL per well), and the cells were incubated for an additional 48 h (n = 3). Control wells received fresh culture media alone (n = 3). […] Finally, the absorbance was measured at 450 nm using a microplate reader (Synergy H1, BioTek, USA). […]

[2] = tested on: human ovarian SKOV3 cells; assay: CCK8 antiproliferation assay, SKOV3; type: cell-based; conditions: SK-OV-3, SKOV3, 48 h treatment
Protocol: as §1, §2

[3] = Solid-state storage stability of PTP; type: physicochemical; conditions: stored at −20 °C for 6 months; initial purity 98.5%
Protocol: For solid-state stability, 5.0 mg PTP was sealed in glass bottles and stored under controlled conditions in stability chambers (MMM Climacell-E, Germany). The samples were stored at 40 ± 2 °C and 75 ± 5% relative humidity, and 25 ± 2 °C and 60 ± 5% RH. Additional samples were stored at 4 °C and −20 °C in a refrigerator (BCD-610W, Siemens, Germany). At scheduled intervals, triplicate samples from each condition were analyzed for purity by HPLC.

[4] = Appearance on dissolving/dispersing in water or excipient solution; type: physicochemical; conditions: 5.0 mg·mL^–1 drug; with 260.0 mg·mL^–1 PEG400 or 20.0 mg·mL^–1 HA where named
Protocol: PTP self-assemblies were prepared by adding 5.0 mg of PTP to 1.0 mL of a water, followed by vortexing for 1 min. For PTP@PEG coassemblies, 260.0 mg of PEG400 was mixed with 1.0 mL of the chosen water-based solution. This PEG400 solution was then added to 5.0 mg of PTP powder, and the resulting mixture was vortexed for 1 min. PTP@HA coassemblies were prepared by first dispersing 20.0 mg of HA in 1.0 mL of the selected water-based solution. Following this step, the resulting HA solution was added to 5.0 mg of PTP powder. The final mixture was vortexed for 1 min. To prepare the PTX@PEG control system, 1.3 g of PEG400 was mixed with 5.0 mL of water. Then, 25.0 mg of PTX was added to the solution, and the mixture was vortexed for 1 min. Similarly, the PTX@HA control system was prepared by dispersing 100.0 mg of HA in 5.0 mL of water. Subsequently, 25.0 mg of PTX was added, and the mixture was vortexed for 1 min.

[5] = In vitro PTP release (transwell, PBS); type: physicochemical; conditions: over 12 h, 5.0 mg·mL^–1 PTP
Protocol: The in vitro drug release from the PTP assemblies and PTP@HA was assessed in 1 × PBS (pH 7.4). A 0.1 mL dispersion of PTP (5.0 mg·mL^–1) or PTP@HA (equivalent to 5.0 mg·mL^–1 PTP and 20.0 mg·mL^–1 HA) in saline was added to the upper chamber of a 24-well transwell plate (#3413, Corning, USA) equipped with a 0.4 μm polycarbonate membrane (n = 3). The lower chamber contained 0.6 mL 1 × PBS. The setup was maintained at 37 °C with shaking at 100 rpm. At specified time intervals, the PBS in the lower chamber was replaced with fresh PBS. Each collected sample was mixed with 600 μL acetonitrile and vortexed for 1 min. PTP release and PTX degradation products were quantified by HPLC.

CC(=O)O[C@H]1C(=O)[C@@]2(C)[C@H]([C@H](OC(=O)c3ccccc3)[C@]3(O)C[C@H](OC(=O)[C@H](OC(=O)CCP(=O)(O)O)[C@@H](NC(=O)c4ccccc4)c4ccccc4)C(C)=C1C3(C)C)[C@]1(OC(C)=O)CO[C@@H]1C[C@@H]2O [PTP, PTX-2’–OOC-P] gave a pIC50 [1] of 7.90, a pIC50 [2] of 7.51 and a purity after storage [3] of 98.1%. For the same molecule, the “appearance of the system” value [4] was “transparent solution”, the “total release of PTP” value ([5]; PBS pH 7.4, 37 °C) was 40.6% and the average release rate ([5]; PBS pH 7.4, 37 °C (data not shown)) was 17.5 μg·h^–1.
